Test results reported in paper PMC12656327 (Pharmaceutics, 2025).
Values joined by “and” are separate entries in the source; they are usually repeats but may differ in a detail not shown here. Identical values can stand only once. Like-named read-outs stand apart in the source and are kept apart here.

How the values were obtained:
[1] = system: MRC-5 (human embryonic lung fibroblast) cells; assay: MTT cytotoxicity, MRC-5 cells, 72 h; assay type: cell-based; conditions: MRC5, 72 h exposure
[2] = system: AB1 cells; assay: NO release in vitro in AB1 cells (Griess reagent); assay type: cell-based, mouse; conditions: 25 μM, 24 h, relative to untreated cells
[3] = system: AB1 (mouse malignant mesothelioma) cells; assay: cells; conditions: AB1, 72 h, read-out: IC50 AB1
[4] = NO release, Griess assay (phosphate buffer pH 7.4 with L-cysteine); assay type: physicochemical; conditions: for NO Released (%) 1 h: 1 h incubation, expressed as % NO2− (μmol/μmol), Griess assay, physiological conditions, furoxan 100 µM; for NO Released (%) 24 h: 24 h incubation; for NO Released (%) 24 h / NO Released (%) 48 h: % NO2− (μmol/μmol); for NO Released (%) 48 h: 48 h incubation; for NO-donor ranking (in words): among all tested compounds
[5] = system: JU77 (human malignant mesothelioma) cells; assay: cells; conditions: 72 h, read-out: IC50 JU77
[6] = system: JU77 (human malignant mesothelioma) cells; conditions: for SF JU77 (selectivity factor): ratio of the IC50 value in MRC-5 to that in JU77
[7] = system: AB1 and JU77 cell lines; assay: cells; conditions: MPM, 72 h, read-out: IC50 (cytotoxicity) in both MPM cell lines
[8] = system: AB1 (mouse malignant mesothelioma) cells
[9] = system: AB1 cells; assay: JC-1 assay of mitochondrial membrane potential; assay type: cell-based, mouse; conditions: for mitochondrial membrane depolarization (in words): 25 µM; for JC-1 Aggregates / JC-1 Monomers: representative dot plot
[10] = system: AB1 and JU77 cell lines
[11] = Stability in DMSO-d6 by 1H NMR spectroscopy; assay type: physicochemical; conditions: DMSO-d6, 1H NMR spectra after 1, 20, 48 and 120 h
Text: For the synthesis of the target bis(1,2,4-oxadiazolyl)furoxans, we employed a synthetic approach based on the reaction of readily available furoxanylbis(amidoxime) 1c with in situ activated carboxylic acids, except for compound 2a, which was synthesized using orthoformate in the presence of boron trifluoride etherate. Specifically, activation of the corresponding carboxylic acid with 1,1′-carbonyldiimidazole, followed by the addition of bis(amidoxime) 1c and 1,4-diazabicyclo [2.2.2]octane (DABCO) as a base to promote the heterocyclization step, afforded the desired heterocyclic assemblies 2b–l (Scheme 1, Figures S1–S24). […] The stability of the synthesized heterocyclic compounds was further examined in DMSO-d6 via ^1H NMR spectroscopy. The representative compound 2j was completely stable in solution for at least 120 h. The corresponding set of ^1H NMR spectra recorded for 2j after 1, 20, 48, and 120 h is provided in the (supporting information (SI) Figure S25).
Figure S25. Stability of the representative compound 2j for 1 h, 20 h, 48 h and 120 h in DMSO -[d6] according to 1H NMR spectroscopy.
(1 picture or pasted object on this page, not shown here)

[12] = system: AB1 cells; assay: Annexin V/PI assay, flow cytometry; assay type: cell-based, mouse; conditions: 25 µM, 24 h
[13] = design: method as in PMID 40006597; conditions: % NO2− (μmol/μmol), cited from earlier work; for NO Released (%) 1 h: 1 h incubation; for NO Released (%) 24 h: 24 h incubation; for NO Released (%) 48 h: 48 h incubation
[14] = system: AB1 (mouse malignant mesothelioma) cells; design: method as in PMID 40006597; conditions: MTT, 72 h exposure; cited from earlier work
[15] = system: JU77 (human malignant mesothelioma) cells; design: method as in PMID 40006597; conditions: MTT, 72 h exposure; cited from earlier work
[16] = system: MRC-5 (human embryonic lung fibroblast) cells; design: method as in PMID 40006597; conditions: MTT, 72 h exposure; cited from earlier work
[17] = positive control, 20 μM, 30 min

Structure (SMILES)	IC50 [1] [µM]	intracellular NO release (in words) [2]	IC50 [3] [µM]	NO Released (%) 1 h [4] [%]	NO Released (%) 24 h [4] [%]	NO Released (%) 48 h [4] [%]	IC50 [5] [µM]	SF JU77 (selectivity factor) [6]	further results
O=[N+]([O-])c1ccc(-c2nc(-c3no[n+]([O-])c3-c3noc(-c4ccc([N+](=O)[O-])cc4)n3)no2)cc1 [2b]	> 25	minimal NO release	> 25	38 ± 3	46 ± 1	48 ± 2	> 25		
O=[N+]([O-])c1cccc(-c2nc(-c3no[n+]([O-])c3-c3noc(-c4cccc([N+](=O)[O-])c4)n3)no2)c1 [2c]	27.9 ± 4.6		19.9 ± 4.3	37 ± 1	49 ± 2	63 ± 2	7.3 ± 1	3.8	
O=[N+]([O-])c1ccccc1-c1nc(-c2no[n+]([O-])c2-c2noc(-c3ccccc3[N+](=O)[O-])n2)no1 [2d]	16.8 ± 5.7	highest levels of intracellular NO	11.2 ± 2	54 ± 14	69 ± 14	72 ± 13	3 ± 0.4	5.7	IC50 [7]: 3 to 14 µM
[O-][n+]1onc(-c2noc(-c3ccccc3)n2)c1-c1noc(-c2ccccc2)n1 [2e]	17.7 ± 3.8	minimal NO release	33.9 ± 3.4	51 ± 10	61 ± 12	64 ± 2	10.5 ± 0.5	1.6	cytotoxic effects in the AB1 cell line (in words) [8]: no cytotoxic effects
[O-][n+]1onc(-c2noc(-c3ccncc3)n2)c1-c1noc(-c2ccncc2)n1 [2f]	29.9 ± 1.6	highest levels of intracellular NO and high	8.5 ± 2.1	71 ± 15	94 ± 15	103 ± 14	14.1 ± 4.1	2.1	IC50 [7]: 3 to 14 µM; decrease of cytotoxicity in JU77 cells relative to 2a [6]: 1.6 fold; NO-donor ranking (in words) [4]: most effective NO donors; total amount of released NO ([4]; with longer incubation periods): exceeded 100%; mitochondrial membrane depolarization (in words) ([9]; 24 h): markedly higher and relatively comparable levels of depolarization; JC-1 Aggregates ([9]; 25 μM, 24 h): 87.6%; JC-1 Monomers ([9]; 25 μM, 24 h): 12.4%; increase of cytotoxicity in AB1 cells relative to 2a [8]: 1.4 fold
Cc1ccc(-c2nc(-c3no[n+]([O-])c3-c3noc(-c4ccc(C)cc4)n3)no2)cc1 [2h]	> 25	minimal NO release	> 25	37 ± 5	52 ± 1	56 ± 1	16 ± 3.9	>1.6	cytotoxicity (in words) [10]: lacked cytotoxic effects; cytotoxic effects in the AB1 cell line (in words) [8]: no cytotoxic effects
COc1ccc(-c2nc(-c3no[n+]([O-])c3-c3noc(-c4ccc(OC)cc4)n3)no2)cc1 [2i]	> 25	minimal NO release	> 25	75 ± 1	78 ± 5	89 ± 3	> 25		cytotoxicity (in words) [10]: lacked cytotoxic effects; NO-donor ranking (in words) [4]: most effective NO donors; cytotoxic effects in the AB1 cell line (in words) [8]: no cytotoxic effects
COc1ccc(-c2nc(-c3no[n+]([O-])c3-c3noc(-c4ccc(OC)c(OC)c4)n3)no2)cc1OC [2j]	25.7 ± 8.7		21.7 ± 4.5	35 ± 2	37 ± 3	39 ± 5	19.7 ± 2.1	1.3	time completely stable in solution [11]: at least 120 h
[O-][n+]1onc(-c2noc(-c3ccccc3Cl)n2)c1-c1noc(-c2ccccc2Cl)n1 [2k]	7.8 ± 2.3	low	15.5 ± 3	37 ± 5	41 ± 8	43 ± 7	4.9 ± 1.2		induction of apoptosis/necrosis (in words) [12]: did not induce significant cancer cell death; mitochondrial membrane depolarization (in words) ([9]; 24 h): least mitochondrial damage; JC-1 Aggregates ([9]; 25 μM, 24 h): 96.3%; JC-1 Monomers ([9]; 25 μM, 24 h): 3.7%
NC(=O)c1c(CO)no[n+]1[O-] [CAS-1609, 3-carbamoyl-4-(hydroxymethyl)furoxan]									NO Released (%) 1 h [13]: 27% and 27 ± 3%; NO Released (%) 24 h [13]: 68 ± 6%; NO Released (%) 48 h [13]: 73 ± 6%
N#CC(C#N)=NNc1cccc(Cl)c1 [CCCP, carbonyl cyanide 3-chlorophenylhydrazone, reference compound]									JC-1 Aggregates [9, 17]: 30.1%; JC-1 Monomers [9, 17]: 69.9%
CCOc1no[n+]([O-])c1S(=O)(=O)c1ccccc1 [CHF-2363, 4-ethoxy-3-phenylsulfonylfuroxan]									NO Released (%) 1 h [13]: 26% and 26 ± 10%; NO Released (%) 24 h [13]: 71 ± 4%; NO Released (%) 48 h [13]: 77 ± 9%
N.N.[Cl][Pt][Cl] [Cisplatin, cisplatin]									IC50 [14]: 5.8 ± 1 µM; IC50 [15]: 4.2 ± 0.5 µM; IC50 [16]: 3.1 ± 1.2 µM
